Results published in PubChem BioAssay (NCI).
Several values for one entry are separate records, joined by “and”; a condition that tells them apart may be missing. Identical values can stand only once.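 Values below derive from 48-hour exposures of cells grown in 96-well plates, with endpoints linearly interpolated between the two concentrations bracketing the appropriate inhibition level. At the GI50, growth is halved. TGI: total growth inhibition.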

What was measured:
Assay in all cases: growth of human tumour cells (NCI), 48 h
[1] = test system: SNB-75 CNS
[2] = test system: RXF 393 renal
[3] = test system: HT29 colon
[4] = test system: LOX IMVI melanoma
[5] = test system: UO-31 renal
[6] = test system: CAKI-1 renal
[7] = test system: SK-MEL-2 melanoma
[8] = test system: SK-OV-3 ovarian
[9] = test system: NCI-H460 lung
[10] = test system: SF-539 CNS
[11] = test system: A498 renal
[12] = test system: ACHN renal
[13] = test system: EKVX NSCLC
[14] = test system: KM12 colon
[15] = test system: TK-10 renal
[16] = test system: NCI/ADR-RES ovarian
[17] = test system: NCI-H226 lung
[18] = test system: HCT-116 colon
[19] = test system: SR leukemia
[20] = test system: SK-MEL-28 melanoma
[21] = test system: IGROV1 ovarian
[22] = test system: MDA-MB-435
[23] = test system: PC-3 prostate
[24] = test system: OVCAR-4 ovarian
[25] = test system: OVCAR-5 ovarian
[26] = test system: OVCAR-8 ovarian
[27] = test system: COLO 205 colon
[28] = test system: NCI-H23 lung
[29] = test system: A549 NSCLC
[30] = test system: MDA-MB-231 breast
[31] = test system: SW-620 colon
[32] = test system: HL-60(TB) leukemia
[33] = test system: UACC-62 melanoma
[34] = test system: UACC-257 melanoma
[35] = test system: SF-268 CNS
[36] = test system: MOLT-4 leukemia
[37] = test system: NCI-H522 lung
[38] = test system: T-47D breast
[39] = test system: 786-0 renal
[40] = test system: SF-295 CNS
[41] = test system: M14 melanoma
[42] = test system: DU-145 prostate
[43] = test system: OVCAR-3 ovarian
[44] = test system: BT-549 breast
[45] = test system: HS 578T breast
[46] = test system: MALME-3M melanoma
[47] = test system: SK-MEL-5 melanoma
[48] = test system: HCC-2998 colon
[49] = test system: SNB-19 CNS
[50] = test system: U251 CNS
[51] = test system: MCF7 breast
[52] = test system: HCT-15 colon
[53] = test system: MDA-N
[54] = test system: SN12C renal
[55] = test system: HOP-92 NSCLC
[56] = test system: K-562 leukemia
[57] = test system: RPMI-8226 leukemia
[58] = test system: HOP-62 NSCLC
[59] = test system: CCRF-CEM leukemia

## COc1cc2c3cc1Oc1c(OC)c(OC)cc4c1C(Cc1ccc(O)c(c1)-c1cc(ccc1OC)CC3N(C)CC2)N(C)CC4 (stereo unspecified)
[1]
  TGI: 39.6 µM
[2]
  TGI: 6.7 µM
[3]
  TGI: 50.4 µM
[4]
  TGI: 83 µM
[5]
  TGI: 29.2 µM
[6]
  TGI: 59.6 µM
[7]
  TGI: 43 µM
[8]
  TGI: > 100 µM
[9]
  TGI: 51.2 µM
[10]
  TGI: 23.4 µM
[11]
  TGI: 46.3 µM
[12]
  TGI: 56.8 µM
[13]
  TGI: 91.1 µM
[14]
  TGI: 37.6 µM
[15]
  TGI: > 100 µM
[16]
  TGI: 73.9 µM
[17]
  TGI: > 100 µM
[18]
  TGI: > 100 µM
[19]
  TGI: 28.4 µM
[20]
  TGI: 82.7 µM
[21]
  TGI: 63.7 µM
[22]
  TGI: 61.5 µM
[23]
  TGI: > 100 µM
[24]
  TGI: > 100 µM
[25]
  TGI: > 100 µM
[26]
  TGI: 46.3 µM
[27]
  TGI: > 100 µM
[28]
  TGI: 51.5 µM
[29]
  TGI: > 100 µM
[30]
  TGI: 35.4 µM
[31]
  TGI: > 100 µM
[32]
  TGI: 15.4 µM
[33]
  TGI: 57.2 µM
[34]
  TGI: 59.3 µM
[35]
  TGI: 72.3 µM
[36]
  TGI: 74.2 µM
[37]
  TGI: 31.1 µM
[38]
  TGI: 68.9 µM
[39]
  TGI: > 100 µM
[40]
  TGI: 39.4 µM
[41]
  TGI: 15.5 µM
[42]
  TGI: > 100 µM
[43]
  TGI: > 100 µM
[44]
  TGI: 51.1 µM
[45]
  TGI: 59.1 µM
[46]
  TGI: 41.4 µM
[47]
  TGI: 40.5 µM
[48]
  TGI: 37.9 µM
[49]
  TGI: 56.1 µM
[50]
  TGI: > 100 µM
[51]
  TGI: 49 µM
[52]
  TGI: 25.4 µM
[53]
  TGI: 30.6 µM
[54]
  TGI: 42.7 µM
[55]
  TGI: 53.7 µM
[56]
  TGI: 61.8 µM

## Clc1ccc(COC(Cn2ccnc2)c2ccc(Cl)cc2Cl)c(Cl)c1 (stereo unspecified)
[1]
  TGI: 12.6 µM and 28.8 µM and 16.2 µM
[2]
  GI50: 2.78 µM and 12.1 µM and 3.84 µM
  TGI: 10.5 µM and 26 µM and 14.5 µM
[3]
  GI50: 3.55 µM and 7.53 µM and 3.17 µM
  TGI: 15.4 µM and 21.1 µM and 15.5 µM
[4]
  GI50: 3.51 µM
  TGI: 16.2 µM and 34.3 µM and 24.8 µM
[5]
  GI50: 2.3 µM
  TGI: 12.4 µM and 16.5 µM and 13.6 µM
[6]
  GI50: 3.18 µM
  TGI: 12.9 µM and 26.8 µM and 23.4 µM
[7]
  TGI: 32.6 µM and 28.8 µM
[8]
  GI50: 2.99 µM
  TGI: 9.92 µM and 27.5 µM and 27.4 µM
[9]
  GI50: 4.38 µM
  TGI: 19.3 µM and > 100 µM and 35 µM
[10]
  TGI: 27.8 µM and 32.7 µM and 27.7 µM
[11]
  TGI: 17.6 µM and 27.3 µM and 19.6 µM
[12]
  GI50: 4.51 µM
  TGI: 16.1 µM and 30.1 µM and 24.6 µM
[13]
  GI50: 5.64 µM
  TGI: 18.4 µM and 29.1 µM and 23.1 µM
[57]
  GI50: 3.67 µM
  TGI: 18.8 µM and 37.7 µM
[14]
  GI50: 4.36 µM
  TGI: 15.5 µM and 26.4 µM and 28.8 µM
[15]
  GI50: 10.7 µM
  TGI: 22.9 µM and 29.6 µM
[16]
  GI50: 3.06 µM
  TGI: 13.3 µM and 25.2 µM and 16 µM
[17]
  GI50: 1.55 µM and 4.44 µM and 9.24 µM
  TGI: 3.31 µM and 23.2 µM and 24.2 µM
[18]
  GI50: 2.87 µM
  TGI: 11.3 µM and 18.4 µM and 17.7 µM
[19]
  GI50: 4.34 µM and 2.47 µM and 5.92 µM
  TGI: 18.3 µM and 12.3 µM and 22.4 µM
[20]
  GI50: 4.96 µM
  TGI: 17.8 µM and 34.2 µM and 26 µM
[21]
  GI50: 3.59 µM and 10.6 µM and 1.37 µM
  TGI: 15 µM and 24.7 µM and 10.9 µM
[58]
  GI50: 2.07 µM
  TGI: 5.73 µM and 27.2 µM and 26.6 µM
[22]
  GI50: 2.39 µM
  TGI: 6.89 µM and 13 µM and 9.97 µM
[23]
  GI50: 3.07 µM
  TGI: 13.8 µM and 20.6 µM and 20.3 µM
[24]
  GI50: 2.91 µM
  TGI: 18.4 µM and 23.3 µM and 25.7 µM
[25]
  GI50: 9.81 µM
  TGI: 21.7 µM and 32.4 µM and 25.8 µM
[26]
  GI50: 4.21 µM
  TGI: 27.3 µM and 36.9 µM and 22.1 µM
[27]
  GI50: 1.62 µM and 10.1 µM and 3.78 µM
  TGI: 3.18 µM and 22.1 µM and 16.1 µM
[28]
  GI50: 3.03 µM
  TGI: 14.6 µM and 25.8 µM and 22.4 µM
[29]
  GI50: 3.87 µM
  TGI: 15.5 µM and 23.8 µM and 23.2 µM
[30]
  GI50: 2.15 µM
  TGI: 12.9 µM and 26.2 µM and 24.6 µM
[31]
  GI50: 4.34 µM
  TGI: 17.5 µM and 29.9 µM and 28.8 µM
[32]
  GI50: 2.34 µM
  TGI: 6.21 µM and 17 µM and 7.02 µM
[33]
  GI50: 2.06 µM
  TGI: 10.2 µM and 25 µM and 23.3 µM
[34]
  GI50: 5.08 µM
  TGI: 17.7 µM and 30.3 µM and 23.2 µM
[35]
  GI50: 7.87 µM
  TGI: 24.9 µM and 26.9 µM and 28.6 µM
[36]
  TGI: 15.1 µM and 22.2 µM and 13.9 µM
[37]
  TGI: 23.7 µM and 22.8 µM
[38]
  GI50: 2 µM
  TGI: 8.33 µM and 24.6 µM and 21.6 µM
[39]
  GI50: 4.2 µM
  TGI: 14.5 µM and 21 µM and 22.9 µM
[59]
  GI50: 4.55 µM
  TGI: 21.2 µM and 24.8 µM and 19.8 µM
[40]
  GI50: 2.29 µM
  TGI: 8.73 µM and 23.7 µM and 23.8 µM
[41]
  GI50: 3.73 µM
  TGI: 14.1 µM and 26.6 µM and 22.4 µM
[42]
  GI50: 11.3 µM
  TGI: 23.5 µM and 29.6 µM and 25.6 µM
[43]
  GI50: 5.35 µM
  TGI: 17.1 µM and 25 µM and 21.5 µM
[44]
  GI50: 4.7 µM
  TGI: 16 µM and 30.4 µM
[45]
  GI50: 5.49 µM
  TGI: 24 µM and 32 µM
[46]
  GI50: 4.52 µM
  TGI: 17.1 µM and 29.6 µM and 25.1 µM
[48]
  GI50: 3.78 µM
  TGI: 14.9 µM and 35.6 µM and 26.3 µM
[49]
  GI50: 3.24 µM
  TGI: 14.6 µM and 29.6 µM and 29.3 µM
[50]
  GI50: 3.57 µM
  TGI: 16.1 µM and 25.8 µM and 23.6 µM
[51]
  GI50: 3.57 µM
  TGI: 12.4 µM and 27.8 µM and 33.3 µM
[52]
  GI50: 3.94 µM
  TGI: 14.6 µM and 24.8 µM and 26.6 µM
[53]
  TGI: 17.5 µM and 15.6 µM
[54]
  GI50: 2.63 µM
  TGI: 11.7 µM and 27.1 µM and 20.7 µM
[55]
  GI50: 1.74 µM
  TGI: 8.44 µM and 27.1 µM
[56]
  TGI: 21.2 µM and 16.4 µM

## N#CC1=C(S)N(C2OC(CO)C(O)C(O)C2O)C(c2ccccc2)=CC1c1cccs1 (stereo unspecified)
[1]
  TGI: 51.8 µM
[2]
  TGI: 40 µM
[3]
  TGI: 37.5 µM
[4]
  TGI: 36.9 µM
[5]
  TGI: > 100 µM
[6]
  TGI: 50.4 µM
[7]
  TGI: 50.2 µM
[9]
  TGI: 32.9 µM
[10]
  TGI: 38.7 µM
[11]
  TGI: > 10 µM
[12]
  TGI: 40.8 µM
[57]
  TGI: > 100 µM
[14]
  TGI: 34.7 µM
[15]
  TGI: 48.2 µM
[16]
  TGI: > 100 µM
[17]
  TGI: 41.3 µM
[18]
  TGI: 75.7 µM
[19]
  TGI: > 100 µM
[20]
  TGI: 41.4 µM
[21]
  TGI: 45.7 µM
[58]
  TGI: 57 µM
[22]
  TGI: 44.1 µM
[23]
  TGI: 30.8 µM
[24]
  TGI: > 100 µM
[25]
  TGI: > 100 µM
[26]
  TGI: 65.9 µM
[27]
  TGI: 38.6 µM
[28]
  TGI: > 100 µM
[29]
  TGI: 45.6 µM
[30]
  TGI: 63.5 µM
[31]
  TGI: 65 µM
[32]
  TGI: > 100 µM
[33]
  TGI: 48.3 µM
[34]
  TGI: 40.8 µM
[35]
  TGI: 63.8 µM
[36]
  TGI: > 100 µM
[37]
  TGI: 47.5 µM
[38]
  TGI: 65.7 µM
[39]
  TGI: 35.7 µM
[59]
  TGI: > 100 µM
[40]
  TGI: 34.8 µM
[41]
  TGI: > 100 µM
[42]
  TGI: > 10 µM
[43]
  TGI: 80.2 µM
[44]
  TGI: 30.4 µM
[45]
  TGI: 67 µM
[46]
  TGI: 38.7 µM
[47]
  TGI: 31 µM
[48]
  TGI: 44.8 µM
[49]
  TGI: > 10 µM
[50]
  TGI: 51.4 µM
[51]
  TGI: 54.9 µM
[52]
  TGI: > 100 µM
[53]
  TGI: 30.9 µM
[54]
  TGI: 32.4 µM
[55]
  TGI: 68.8 µM
[56]
  TGI: > 100 µM
